# Measurements taken from patent US8188050B2, “Pharmaceutical and/or cosmetic composition containing peptides” (ISP Investments Inc., priority 2006, dated 2012).
# Entries after “also recorded” stand apart in the source; their conditions may differ.
# Test system: Biopsies of human skin
# Assay: Ex vivo study of the effect of the peptide on the synthesis of melanin (Fontana-Masson staining of skin biopsies)
# Format: cell-based
# Conditions: two applications daily, peptide 1% starting with a 50-ppm solution, 48 hours
# Procedure: The aim of this ex vivo study is to highlight the increase in melanization produced by the peptides according to the invention.
# Protocol: Biopsies of human skin 6 mm in diameter are held in an ex vivo culture in the presence of a specific medium (1 g/L DMEM, Ham's F-12, SVF, and antibiotics) on inserts deposited on 6-well plates. […] The duration of the treatment is 48 hours. The biopsies are subsequently fixed in 9% formaldehyde and NaCl (150 mM) for 10 hours and then enclosed in paraffin. Thin-sections of the skin 3 μm thick are then made, and the melanin is specifically stained by the Fontana-Masson technique.
substance,measurement,setting,value
"Thr-Leu-Leu-Ala (TLLA) [SEQ ID No. 3, peptide fragment of the protein SLC24A5]",Location/distribution of melanin in the epidermis,,located in the basal layer but is also transported into the supra-basal layers; also recorded: stimulates the entire process of melanin distribution in the epidermis
same,Synthesis of melanin by the melanocytes (conclusion),,strong increase in the synthesis of melanin
same,Intensity of melanin coloration of skin thin-sections (Fontana-Masson staining),vs. untreated sections,coloration of clearly increased intensity
